The results in this text go back to PMC2193201 (The Journal of Experimental Medicine, 2000).

One data set concerns the target B*3909 (Homo sapiens, UniProt P01889, A182T/A93T/A95T/C349S/D138N/D201E/E176V/E187T/E204Q/K202T/Q94N/R155S/R180L/S121R/Y123S/Y140F/Y91C). The data set is described as follows: cell-based.
A further data set concerns 20S proteasome. As to the kind of experiment: purified 20S proteasome. To be noted: human, 37°C, up to 24 h.
The subject of another data set is aminopeptidase M. To be noted: pig, 37°C, up to 10 min.
Data set [1] addresses T1, aminopeptidase M from pig kidney (Sus scrofa, UniProt P15145).
T1 sequence (P15145 whole entry, looked up): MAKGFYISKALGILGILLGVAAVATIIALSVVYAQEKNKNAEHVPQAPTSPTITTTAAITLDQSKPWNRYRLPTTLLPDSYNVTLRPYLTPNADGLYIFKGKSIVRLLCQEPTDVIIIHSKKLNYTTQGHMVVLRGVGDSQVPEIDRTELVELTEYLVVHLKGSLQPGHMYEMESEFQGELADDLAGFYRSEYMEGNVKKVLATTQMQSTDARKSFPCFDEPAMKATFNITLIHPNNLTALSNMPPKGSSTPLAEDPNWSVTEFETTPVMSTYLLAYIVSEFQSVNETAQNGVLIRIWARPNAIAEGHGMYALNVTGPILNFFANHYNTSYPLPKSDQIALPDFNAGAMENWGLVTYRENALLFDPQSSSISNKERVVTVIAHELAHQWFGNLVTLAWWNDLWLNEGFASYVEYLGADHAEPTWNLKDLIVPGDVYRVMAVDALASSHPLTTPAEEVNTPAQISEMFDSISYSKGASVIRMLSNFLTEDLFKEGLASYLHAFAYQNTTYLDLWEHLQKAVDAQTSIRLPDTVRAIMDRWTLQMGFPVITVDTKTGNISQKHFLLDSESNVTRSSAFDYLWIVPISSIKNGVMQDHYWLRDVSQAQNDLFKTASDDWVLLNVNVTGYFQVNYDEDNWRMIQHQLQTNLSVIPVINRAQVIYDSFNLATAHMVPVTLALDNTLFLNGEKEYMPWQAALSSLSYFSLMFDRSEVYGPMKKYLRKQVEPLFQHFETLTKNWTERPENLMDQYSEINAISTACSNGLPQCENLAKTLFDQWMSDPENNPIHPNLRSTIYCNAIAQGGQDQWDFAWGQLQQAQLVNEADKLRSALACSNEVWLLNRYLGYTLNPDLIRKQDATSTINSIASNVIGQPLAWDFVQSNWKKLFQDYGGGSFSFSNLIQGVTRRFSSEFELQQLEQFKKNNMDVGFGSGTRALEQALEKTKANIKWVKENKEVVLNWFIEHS

Where a SMILES comes first, the peptide text is derived from it.

On B*3909, `CC(C)C[C@H](NC(=O)[C@H](C)NC(=O)[C@@H](NC(=O)[C@@H](NC(=O)CNC(=O)[C@@H]1CCCN1C(=O)[C@H](CCCNC(=N)N)NC(=O)[C@@H](N)Cc1ccc(O)cc1)[C@@H](C)O)C(C)C)C(=O)O` [YRPGTVAL] (H-YRPGTVAL-OH) yielded a 50% effective concentration (EC50) of 12 µM.
NAc-SHVAVENALGLDQQFAGLDLNSSDNQSGGS: the cleaved bond entry in the data set with 20S proteasome is recorded as “L9-G10, major”.
NAc-SHVAVENAL: the not cleaved entry in the data set with aminopeptidase M is “signals remained strongly significant”.
In the case of THGPPVQL, in data set [1], the “MALDI-TOF MS peak signal after digestion with aminopeptidase M” value is “reduced almost to background levels”.
The molecule `CC(C)C[C@H](NC(=O)[C@H](Cc1ccc(O)cc1)NC(=O)[C@H](Cc1ccccc1)NC(=O)[C@H](CCC(=O)O)NC(=O)[C@@H](NC(=O)[C@H](CCC(=O)O)NC(=O)[C@H](CC(=O)O)NC(=O)[C@H](CCCNC(=N)N)NC(=O)[C@H](C)N)[C@@H](C)O)C(=O)O` (H-ARDETEFYL-OH) had a concentration for a half-maximal effect (EC50) on B*3909 of 5 µM.
